The data set is described as follows: in vitro. The conditions noted are these: human, hela cells, % viability.

SMILES strings stand for the structures.

Consider `CN1CCC(N2CCN(C(=O)c3cncc(-c4[nH]nnc4-c4ccccc4)c3)CC2)CC1` [CBK160327], for which the viability at 28.5 h, 10 µM was 98.3%.

In the case of `O=S(=O)(Nc1cccc(-c2nnn[nH]2)c1)c1cc(Br)c(Cl)s1` [CBK160374], the viability at 28.5 h, 10 µM came out at 102%.

As to `CC(=O)c1c(C)oc2ccc(O)c(CN3CCOCC3)c12` [CBK160396], the viability at 28.5 h, 10 µM amounted to 104%.

Consider `Oc1c(Br)cc2oc3c(c2c1CNc1ccccc1)CCCC3` [CBK160397], for which the viability at 28.5 h, 10 µM was found to be 103%.

Regarding `CC(C)NCc1c(O)c(Br)cc2oc3c(c12)CCCC3` [CBK160400], the viability at 28.5 h, 10 µM was 96.5%.

Consider `CCc1onc(-c2ccccc2)c1C(=O)NCCO` [CBK160434], for which the viability at 28.5 h, 10 µM came to 89.8%.

Consider `Cc1onc(-c2c(Cl)cccc2Cl)c1C(=O)N(C)C` [CBK160437], for which the viability at 28.5 h, 10 µM was 97%.

Consider `CS(=O)(=O)c1ccc(-c2ccc(C(=O)N3CCN(Cc4ccc(F)c(F)c4)CC3)nc2)cc1` [CBK160485], for which the viability at 28.5 h, 10 µM was determined as 87.4%.

Regarding `CCN(CC)CCN(CCc1ccc(OC)c(OC)c1)C(=O)Nc1ccc(Cl)cc1` [CBK160510], the viability at 28.5 h, 10 µM is 96.6%.

Take `O=C(C(Cc1ccccc1)c1ccccc1)N1CCC2(CCN(CCCCOc3ccccc3)C2)C1` (centres unmarked) [CBK160643]: the viability at 28.5 h, 10 µM is 101%.

Turning to `CC(=O)NCc1cccc(-c2cc(C(=O)Nc3ccc4c(c3)OCCO4)cnc2-c2cccnc2)c1` [CBK160658], the viability at 28.5 h, 10 µM was 88.6%.

Take `O=C(COc1ccccc1)N1CCC(Oc2nccnc2OCc2ccc(Cl)c(Cl)c2)CC1` [CBK160718]: the viability at 28.5 h, 10 µM was 99%.

With `O=C(c1ccc(F)cc1)N1CCC(Oc2nccnc2OCc2ccc(Cl)c(Cl)c2)CC1` [CBK160721], the viability at 28.5 h, 10 µM was 85.9%.

For `COc1cc2nc(N3CCC4(CCN(C(=O)C(c5ccccc5)C(C)C)C4)C3)nc(N)c2cc1OC` (centres unmarked) [CBK160790], the viability at 28.5 h, 10 µM turned out to be 76.3%.

Consider `Cc1cc(C(=O)N2CCN(C(=O)c3cn(Cc4ccc(S(C)(=O)=O)cc4)nn3)CC2)n(C)n1` [CBK160824T], for which the viability at 28.5 h, 10 µM is 110%.

With `CCCOc1ccc(OC(=O)COc2ccccc2)cc1` [CBK160853], the viability at 28.5 h, 10 µM came out at 93.3%.

As for `CCCC[C@H]1CC[C@H](C(=O)Oc2ccc(OC(C)C(=O)O)cc2)CC1` (some centres unmarked) [CBK160854], the viability at 28.5 h, 10 µM amounted to 93.8%.

For `CN(C)C(=O)N1CCN(C(=O)c2cn(Cc3cccc(S(C)(=O)=O)c3)nn2)CC1` [CBK160969T], the viability at 28.5 h, 10 µM was 89.7%.

As for `O=C(Cc1csc(-c2ccc(Cl)cc2)n1)NCC1CCCN1` (centres unmarked) [CBK160982], the viability at 28.5 h, 10 µM is 106%.

Turning to `COC(=O)CCC(=O)N1CCCC2(CCN(C(=O)c3ccoc3)C2)C1` (centres unmarked) [CBK160988], the viability at 28.5 h, 10 µM is 100%.

Consider `CCOC(=O)C1(C2CCCCC2)CCN(C(=O)CN2C(=O)CSC2=O)CC1` [CBK160993], for which the viability at 28.5 h, 10 µM was 97.1%.

Consider `CC(C)OC(=O)N1CCN(C(=O)c2cn(Cc3cccc(S(C)(=O)=O)c3)nn2)CC1` [CBK160994T], for which the viability at 28.5 h, 10 µM turned out to be 88.5%.

With `O=C(NCCc1c[nH]cn1)c1ccccc1-n1cccc1` [CBK161000], the viability at 28.5 h, 10 µM turned out to be 92.4%.

Take `O=C(NCc1c(F)cccc1F)c1ccc(-c2ccc(OC(F)(F)F)cc2)nc1` [CBK161007T]: the viability at 28.5 h, 10 µM came out at 97.6%.

Take `CC(=O)NCc1cccc(-c2cncc(C(=O)Nc3ccc4c(c3)OCCO4)c2)c1` [CBK161009T]: the viability at 28.5 h, 10 µM stood at 82.1%.

As to `CCc1ccc(CNC(=O)Cn2nnc(-c3ccc(CNC4CCOCC4)cc3)n2)cc1` [CBK161029C], the viability at 28.5 h, 10 µM was found to be 89.8%.

`CCSCCN1CCC(Oc2nccnc2OCc2ccc(Br)cc2F)CC1` [CBK161087]: the viability at 28.5 h, 10 µM turned out to be 98.7%.

As for `NC(=O)c1cccc(CN2CCOC3(CCN(C(=O)OCc4ccccc4)CC3)C2)c1` [CBK161100T], the viability at 28.5 h, 10 µM came out at 90.4%.

On to `COc1cc(OC)nc(CN2CCOC3(CCN(C(=O)OCc4ccccc4)CC3)C2)n1` [CBK161101T], for which the viability at 28.5 h, 10 µM worked out at 96.2%.

Regarding `N#Cc1ccc(CN2CCOC3(CCN(C(=O)OCc4ccccc4)CC3)C2)cc1` [CBK161103T], the viability at 28.5 h, 10 µM was determined as 99.1%.

In the case of `O=C(OCc1ccccc1)N1CCC2(CC1)CN(c1ccc(C(F)(F)F)cn1)CCO2` [CBK161116T], the viability at 28.5 h, 10 µM was 95.8%.

Consider `COc1ccc([N+](=O)[O-])c(N2CCOC3(CCN(C(=O)OCc4ccccc4)CC3)C2)n1` [CBK161117T], for which the viability at 28.5 h, 10 µM amounted to 103%.

On to `O=C(c1ccc2ccccc2c1)N1CCC2(CC1)CN(Cc1ccccc1)CCO2` [CBK161118A], for which the viability at 28.5 h, 10 µM came to 94.1%.

Take `CS(=O)(=O)c1ccc(CN2CCOC3(CCN(C(=O)c4ccc5ccccc5c4)CC3)C2)cc1` [CBK161122A]: the viability at 28.5 h, 10 µM came to 104%.

For `Cc1cc(N2CCOC3(CCN(C(=O)c4ccc5ccccc5c4)CC3)C2)nc(N)n1` [CBK161125A], the viability at 28.5 h, 10 µM is 93.2%.

`Fc1cc(Br)ccc1COc1cccnc1Cl` [CBK161281]: the viability at 28.5 h, 10 µM amounted to 68.4%.

Take `O=C(O)C1CCCN(C(=O)NCC2COc3ccccc3O2)C1` (centres unmarked) [CBK161342]: the viability at 28.5 h, 10 µM turned out to be 121%.

On to `CSCCCNC(=O)N1CCCC(C(=O)O)C1` (centres unmarked) [CBK161343], for which the viability at 28.5 h, 10 µM amounted to 92.1%.

Consider `O=C(O)C1CCCN(C(=O)NCc2cccc(C(F)(F)F)c2)C1` (centres unmarked) [CBK161345], for which the viability at 28.5 h, 10 µM amounted to 94.5%.

In the case of `COc1ccc2[nH]cc(CCNC(=O)N3CCCC(C(=O)O)C3)c2c1` (centres unmarked) [CBK161351], the viability at 28.5 h, 10 µM came out at 108%.

For the compound `N#Cc1ccc(CNC(=O)N2CCCC(C(=O)O)C2)cc1` (centres unmarked) [CBK161352], the viability at 28.5 h, 10 µM came to 89.5%.

As for `COc1ccc(CCNC(=O)N2CCCC(C(=O)O)C2)cc1OC` (centres unmarked) [CBK161354], the viability at 28.5 h, 10 µM worked out at 100%.

In the case of `O=C(O)C1CCCN(C(=O)NCc2c(Cl)cccc2Cl)C1` (centres unmarked) [CBK161362], the viability at 28.5 h, 10 µM came out at 90%.

For `O=C(O)C1CCCN1C(=O)NCc1c(Cl)cccc1Cl` (centres unmarked) [CBK161383], the viability at 28.5 h, 10 µM is 88.1%.

In the case of `COc1cc(CNC(=O)N2CCC(C(=O)O)CC2)cc(OC)c1OC` [CBK161401], the viability at 28.5 h, 10 µM stood at 81.5%.

As for `COc1ccc(CCNC(=O)N2CCC(C(=O)O)CC2)cc1OC` [CBK161404], the viability at 28.5 h, 10 µM was determined as 110%.

For the compound `O=C(O)C1CCN(C(=O)Nc2ccccc2Cl)CC1` [CBK161407], the viability at 28.5 h, 10 µM stood at 106%.

With `CCc1ccc(OCC(O)Cn2nnc(-c3ccc(CN4CCC(C)CC4)cc3)n2)cc1` (centres unmarked) [CBK161437T], the viability at 28.5 h, 10 µM amounted to 111%.

For the compound `CC(=O)NCc1cccc(-c2cc(CO)cnc2-c2ccc(Cl)cc2)c1` [CBK161445], the viability at 28.5 h, 10 µM stood at 94.6%.

On to `CCN(NC(=O)c1cc2cccc(OC)c2o1)c1ccc(C)cc1` [CBK161484], for which the viability at 28.5 h, 10 µM was found to be 106%.

As for `CCOC(=O)CCNC(=O)C1(c2ccc(OC)cc2)CC1` [CBK161490], the viability at 28.5 h, 10 µM is 87.3%.

As to `CCN(NC(=O)c1ccccc1-n1cccc1)c1ccc(C)cc1` [CBK161507], the viability at 28.5 h, 10 µM worked out at 110%.

Regarding `CC(C)c1ccc(/C=C/C(=O)NCc2ccc(NS(C)(=O)=O)cc2)cc1` [CBK161512], the viability at 28.5 h, 10 µM was determined as 97.8%.

For the compound `CS(=O)(=O)c1ccc(CNC(=O)C2(c3ccccc3)CCCC2)cc1` [CBK161524], the viability at 28.5 h, 10 µM is 96.3%.

Regarding `CS(=O)(=O)Nc1ccc(CNC(=O)C2(c3ccccc3)CCCC2)cc1` [CBK161525], the viability at 28.5 h, 10 µM was determined as 101%.

Consider `O=C(c1ccccc1)c1ccc(CNC(=O)C2(c3ccccc3)CCCC2)cc1` [CBK161526], for which the viability at 28.5 h, 10 µM was found to be 87.6%.

Consider `N#CCCCN1CCC(Oc2nccnc2OCc2ccc(-c3ccccc3)cc2)CC1` [CBK161566], for which the viability at 28.5 h, 10 µM turned out to be 95.4%.

On to `N#CCCCN1CCC(Oc2nccnc2OCc2cccc(OCc3ccccc3)c2)CC1` [CBK161572], for which the viability at 28.5 h, 10 µM was 97.5%.

With `Cc1cc(C)c(COc2nccnc2OC2CCN(CCCC#N)CC2)c(C)c1` [CBK161575], the viability at 28.5 h, 10 µM turned out to be 91.6%.

For `CC(=O)NCCOc1nccnc1OCc1ccc(Cl)c(Cl)c1` [CBK161582], the viability at 28.5 h, 10 µM turned out to be 96.4%.

As for `CCCCOc1ccc(Oc2ncc(C(F)(F)F)cc2Cl)cc1` [CBK161629], the viability at 28.5 h, 10 µM turned out to be 94.4%.

Regarding `N#CCCc1ccc(Oc2ncc(C(F)(F)F)cc2Cl)cc1` [CBK161635], the viability at 28.5 h, 10 µM came out at 106%.

Regarding `OCCc1ccc(Oc2ncc(C(F)(F)F)cc2Cl)cc1` [CBK161643], the viability at 28.5 h, 10 µM is 94.6%.

For `CN(C(=O)c1cccs1)c1ccc(Oc2ncc(C(F)(F)F)cc2Cl)cc1` [CBK161654], the viability at 28.5 h, 10 µM came to 89.6%.

As to `O=C(C(CO)c1ccccc1)N1CCC2(CCN(CCCCOc3ccccc3)C2)C1` (centres unmarked) [CBK161722], the viability at 28.5 h, 10 µM came to 90%.

In the case of `CC(=O)NCc1cccc(-c2cc(OCC3COc4ccccc4O3)cnc2C)c1` (centres unmarked) [CBK161723A], the viability at 28.5 h, 10 µM was found to be 112%.

Turning to `O=C(Nc1cccc(Oc2ccccc2)c1)c1ccc2[nH]ccc2c1` [CBK161728], the viability at 28.5 h, 10 µM came out at 97.5%.

`CS(=O)(=O)Nc1ccc(CNC(=O)c2ccc3[nH]ccc3c2)cc1` [CBK161747]: the viability at 28.5 h, 10 µM was 93.5%.

Regarding `O=C(Cc1cc(F)c(F)c(F)c1)Nc1cnccn1` [CBK161764], the viability at 28.5 h, 10 µM was found to be 90.1%.

In the case of `CS(=O)(=O)c1ccc(Cn2ccnc(OC3CCN(C(=O)c4ccc(C#N)cc4)CC3)c2=O)cc1` [CBK161804], the viability at 28.5 h, 10 µM was 92.4%.

For the compound `CS(=O)(=O)c1ccc(Cn2ccnc(OC3CCN(C(=O)c4cccc(C#N)c4)CC3)c2=O)cc1` [CBK161810], the viability at 28.5 h, 10 µM was 105%.

`Cc1cc(C(=O)N2CCC(Oc3nccn(Cc4ccc(S(C)(=O)=O)cc4)c3=O)CC2)ccc1Cl` [CBK161883]: the viability at 28.5 h, 10 µM came out at 92.6%.

Consider `COC1CCC(C(=O)N2CCC(COc3ccc(-c4ccc(S(C)(=O)=O)cc4)cn3)CC2)CC1` (centres unmarked) [CBK161995], for which the viability at 28.5 h, 10 µM came out at 80.3%.

For the compound `COc1cccc(Cc2c(C)nc3c(C(=O)NCCCN4CCCC4=O)cnn3c2C)c1` [CBK162055], the viability at 28.5 h, 10 µM turned out to be 111%.

For `COc1cccc(Cc2c(C)nc3c(C(=O)NCC4COc5ccccc5O4)cnn3c2C)c1` (centres unmarked) [CBK162064], the viability at 28.5 h, 10 µM was determined as 111%.

In the case of `COCCCNC(=O)c1cnn2c(C)c(Cc3cccc(F)c3)c(C)nc12` [CBK162126], the viability at 28.5 h, 10 µM came out at 116%.

Consider `CCc1c(C)nc2c(C(=O)NCCCN3CCCC3=O)cnn2c1C` [CBK162128], for which the viability at 28.5 h, 10 µM was 96.2%.

The record behind these values is paper PMC12040169 (PLOS Biology, 2025).
